This note sets out measurements from publication PMC9281440, “In Vivo Distribution and Therapeutic Efficacy of Radioiodine-Labeled pH-Low Insertion Peptide Variant 3 in a Mouse Model of Breast Cancer” (Molecular Imaging, 2022).

The test system of the experiment is MDA-MB-231 xenografts. The experiment is described as follows: Therapeutic efficacy in MDA-MB-231 xenografts. Type of experiment: in vivo, mouse. Particulars: tail vein injection on days 0 and 3 (29.6 MBq each for radioactive groups), end of treatment (26 days), mean ± SD, n = 5. As for the experimental part: Five-week-old female athymic BALB/c nude mice (Shanghai Slaccas Experiment Animal Corp., Shanghai, China) were used in our study. Mouse xenograft models of MDA-MB-231, 4T1, and SK-BR-3 cells were produced by the subcutaneous injection of 5 × 10^6 cells (suspended in 150 μL PBS) into the right axilla of each mouse. The mice were used in subsequent experiments when tumor diameter reached 0.5-0.9 cm. The study protocol was approved by the institutional review board and by the Experimental Animal Center of Ruijin Hospital affiliated to the School of Medicine of Shanghai Jiao Tong University.
Twenty mice-bearing MDA-MB-231 human BC xenografts were divided into four groups of five animals. Group 1 was injected with ^131I-Var3-pHLIP in the tail vein on days 0 and 3 (29.6 MBq each day). Groups 2, 3, and 4 were injected with the same volume of Var3-pHLIP, ^131I (29.6 MBq), and saline solution, respectively. Tumor size was measured every 2 to 4 days postinjection (pi) for 26 days using a caliper. Tumor volumes (V, […]) were calculated using the formula: V = (a × b^2)/2, where a and b are tumor length and width, respectively. Relative tumor volumes were calculated as V/V0 (V0, tumor volume before treatment). The body weight of mice was also determined.

Consider “ACDDQNPWRAYLDLLFPTDTLLLDLLWK [Var3-pHLIP]”, for which the “relative tumor volume (V/V0)” value came to 4.17 ± 0.51.
